In brackets after ≈: the same amount, converted by molar mass.
Experiments:
[1] = Density of naphthalene based compounds and liquid lens liquids; assay type: physicochemical; design: Density at 20° C.: unit not given here; details: for Density at 20° C.: neat compound
[2] = Refractive index at 589.3 nm; assay type: physicochemical; details: neat compound
Description: (§1) The following examples represent a variety of liquid lenses prepared according to Varioptic A39N0 design. The Varioptic A39N0 lens design includes a mechanical aperture of about 3.9 mm, a non-conductive fluid layer thickness of about 0.6 mm, and a conductive fluid layer thickness of about 1.8 mm. The properties measured for these electrowetting optical devices were performed at 20° C.
(§2) Example of the naphthalene based compounds disclosed herein have a listing of some of their physical properties listed below.

Viscosity at 20° C. = assay type: physicochemical; details: neat compound
Description: as §1, §2

Solubility in water = details: 20 °C
[3] = Solubility in ethylene glycol; details: organic solvent or mixture

SMILES	Density at 20° C. [1]	Index at 589.3 nm/20° C. [2]	Viscosity at 20° C. (Viscosity at 20° C.) [cSt]	solubility (Solubility in water) [µg/mL]	solubility ([3]; 20 °C) [µg/mL]	solubility ([3]; 85 °C) [µg/mL]	Density ([1]; 25° C.)	Density ([1]; comparative aliphatic oil, temperature not given) [g/mL]
CCCc1ccc2ccccc2c1 [XIV, 2-propylnaphthalene]	0.98	1.58						
c1ccc(Sc2ccc3ccccc3c2)cc1 [X, 2-phenylsulfur naphthalene]	1.16	1.69	33.8					
[CH3][Ge]([CH3])([CH3])[c]1ccc2ccccc2c1 [VI, 2-trimethylgermane naphthalene]	1.19	1.59	6.1	6	3400	14800		
CCc1ccc2ccccc2c1 [XIII, 2-ethylnaphthalene]	1.01	1.61	3.9				about 1.01 g/cm^3	
CCCC[Si](C)(C)c1ccc2ccccc2c1 [IX, 2-dimethylbutylsilane naphthalene]	0.97	1.57	14.9		1100 (≈ 4.54 mM)	2100 (≈ 8.66 mM)		
C[CH2][Ge]([CH2]C)([CH2]C)[c]1ccc2ccccc2c1 [VII, 2-triethylgermane naphthalene]	1.14	1.58	10.6		1900	4200		
C[Si](C)(C)c1ccc2ccccc2c1 [VIII, 2-trimethylsilane naphthalene]	1.01	1.58	8.1					
Fc1cccc2ccccc12 [XII, 1-fluoronapthalene]	1.13	1.59	2.1					
CCCCCCCC[Si](C)(C)c1ccc2ccccc2c1 [XI, 2-dimethyloctylsilane naphthalene]	0.95	1.54	25.9		440 (≈ 1.47 mM)	680 (≈ 2.28 mM)		
CCCCCCCCCCCC [dodecane, reference compound]								0.75

From patent US11204492B2, “Naphtyl based high index hydrophobic liquids and transmission recovery agents for liquid lens formulations” (CORNING INCORPORATED, priority 2018, dated 2021)
